For this assay, the system named is ELAC_205. As to conditions: laccase; sodium acetate buffer; optimum pH 1.0, 50 °C (kinetic assay conditions not stated separately).

Molecules are shown by their SMILES.

With `CCn1c(=NN=c2sc3cc(S(=O)(=O)O)ccc3n2CC)sc2cc(S(=O)(=O)O)ccc21` [ABTS, 2, 2’-azino-bis (3-ethylbenzothiazoline-6-sulfonic acid)], the Michaelis constant (Km) (usually the substrate concentration at which the rate is half of its maximum) amounted to 360 ± 70 µM.

Values taken from article PMC10870720, “Lignin bioconversion based on genome mining for ligninolytic genes in Erwinia billingiae QL-Z3” (Biotechnology for Biofuels and Bioproducts, 2024).
